Experimental data published in ChEMBL document CHEMBL1201862, “PubChem BioAssay data set” (2004).
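How tested: cells in 96-well plates exposed to compound for 48 hours at five concentrations. The concentration for 50% growth inhibition is given as GI50.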 Active and inactive are the calls of the source. Rule as the data show it: active = GI50 up to about 1.1 µM and inactive = higher.

Experiments:
Assay in all cases: DTP human tumour cell line panel, 48 h
EKVX = tested on: EKVX
OVCAR-4 = tested on: OVCAR-4
MDA-MB-231 = tested on: MDA-MB-231
OVCAR-5 = tested on: OVCAR-5
MDA-N = tested on: MDA-N
HCC 2998 = tested on: HCC 2998
HOP-62 = tested on: HOP-62
Hs-578T = tested on: Hs-578T
UACC-62 = tested on: UACC-62
MCF7 = tested on: MCF7
786-0 = tested on: 786-0
MOLT-4 = tested on: MOLT-4
SNB-75 = tested on: SNB-75
NCI-H522 = tested on: NCI-H522
SR = tested on: SR
SF-539 = tested on: SF-539
NCI-H226 = tested on: NCI-H226
SF-268 = tested on: SF-268
Malme-3M = tested on: Malme-3M
NCI-H23 = tested on: NCI-H23

Measured: GI50

Cc1cc(N2CCOCC2)nc2ccc(Cc3ccc4nc(N5CCOCC5)cc(C)c4c3)cc12
inactive: EKVX 20.7 µM | OVCAR-4 > 100 µM | MDA-MB-231 > 100 µM | OVCAR-5 > 100 µM | MDA-N 36.6 µM | HCC 2998 15.6 µM | HOP-62 > 100 µM | Hs-578T > 100 µM | UACC-62 45.8 µM | MCF7 37.8 µM | 786-0 32 µM | MOLT-4 28.8 µM | SNB-75 35.2 µM | NCI-H522 26.5 µM | SR 28.3 µM | SF-539 24.2 µM | NCI-H226 33.3 µM | SF-268 > 100 µM | Malme-3M 51.1 µM | NCI-H23 54 µM

COc1cc(/C=C/C(=O)c2c([O-])on[n+]2-c2ccccc2)ccc1O
inactive: EKVX 3.72 µM | OVCAR-4 1.9 µM | MDA-MB-231 2.98 µM | OVCAR-5 11 µM | MDA-N 2.32 µM | HCC 2998 2.27 µM | HOP-62 4.4 µM | Hs-578T 2.43 µM | UACC-62 3.44 µM | MCF7 3.49 µM | 786-0 2 µM | MOLT-4 2.2 µM | SNB-75 2.5 µM | NCI-H522 1.73 µM | SR 1.53 µM | SF-539 2.58 µM | NCI-H226 5.53 µM | SF-268 3.89 µM | Malme-3M 2.78 µM | NCI-H23 2.69 µM

CC(NNC(=O)c1cc[n+]([BH2-]C#N)cc1)c1cccc(C(F)(F)F)c1 (stereo not given)
inactive: EKVX > 100 µM | OVCAR-4 > 100 µM | MDA-MB-231 > 100 µM | OVCAR-5 > 100 µM | MDA-N 81.3 µM | HCC 2998 > 100 µM | HOP-62 > 100 µM | Hs-578T 64.4 µM | UACC-62 73.3 µM | MCF7 56.2 µM | 786-0 > 100 µM | MOLT-4 46.7 µM | SNB-75 > 100 µM | NCI-H522 4.55 µM | SR 52.1 µM | SF-539 > 100 µM | NCI-H226 > 100 µM | SF-268 > 100 µM | Malme-3M > 100 µM | NCI-H23 27.4 µM
